Results as given in patent EP1094724B1, “USE OF A PHENOL OXIDISING ENZYME IN THE TREATMENT OF TOBACCO” (priority 1998, dated 2000).

Target: T1, laccase derived from Trametes villosa, TvL (Trametes villosa, UniProt Q99044)
T1 construct: purchased Novo Nordisk A/S
T1 sequence (Q99044 22-520): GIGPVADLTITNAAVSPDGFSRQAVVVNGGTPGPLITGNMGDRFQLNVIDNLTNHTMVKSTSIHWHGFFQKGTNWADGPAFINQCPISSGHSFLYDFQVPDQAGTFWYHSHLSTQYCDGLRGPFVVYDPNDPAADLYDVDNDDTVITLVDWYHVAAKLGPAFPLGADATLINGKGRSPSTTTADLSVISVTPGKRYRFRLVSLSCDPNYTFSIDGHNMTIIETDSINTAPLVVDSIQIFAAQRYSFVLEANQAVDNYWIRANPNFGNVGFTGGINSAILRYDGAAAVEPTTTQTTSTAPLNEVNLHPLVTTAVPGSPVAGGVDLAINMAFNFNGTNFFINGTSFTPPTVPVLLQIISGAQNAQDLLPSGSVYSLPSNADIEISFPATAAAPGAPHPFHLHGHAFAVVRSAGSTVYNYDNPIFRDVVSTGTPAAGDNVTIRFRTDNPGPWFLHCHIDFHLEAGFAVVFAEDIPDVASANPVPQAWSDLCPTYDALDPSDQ
Experiment: Effect of laccase on tobacco constituents, UV/Vis spectra before and after treatment (Example 1)
Type: biochemical
Conditions: 9 mM Na-acetate buffer pH 5.0; 4.8% Ethanol; 0.025 mg/ml of tobacco constituent; 0.016 mg/ml laccase; spectra 190-700 nm every 20 seconds for 5 minutes
Experimental: Tobacco constituents: Nicotine, Chlorogenic acid, Rutin and Scopoletin. Enzyme: Purified laccase derived from Trametes villosa, TvL. Apparatus: HP8452 UV/Vis diode array spectrophotometer, 1 cm quarts cuvette. Buffer: Sodium acetate (Merck)
10 mM acetate buffer was prepared from sodium acetate adjusted to pH 5.0 with sulphuric acid. Stock solution of 0.50 mg/ml in 96% ethanol was prepared of nicotine, chlorogenic acid, rutin, and scopoletin. A stock solution of 0.31 mg enzyme protein/ml of laccase in de-mineralised water was prepared. The HP diode array spectrophotometer was operated as per the manufacturer's instructions. A 1 cm quartz cuvette was used. As a blank was used 950µl buffer mixed with 50µl 96% ethanol. In a 1 cm quart cuvette was mixed 900µl 10 mM acetate buffer and 50µl of the stock solution of the compound in question. A spectrum of the "native" compound was recorded in the range 190-700 nm. 50µl of TvL stock solution was added and carefully mixed, and spectra in the range 190-700 nm were recorded every 20 seconds for 5 minutes.

COc1cc2ccc(=O)oc2cc1O [S, 7-Hydroxy-6-methoxy-2H-1-benzopyran-2-one]
spectral changes (peak position and peak relative height): significant spectral changes
